Data taken from patent US20250144138A1, “Chimeric Antigen Receptor Therapies and Vasoactive Intestinal Peptide Receptor Antagonists” (Emory University, priority 2021, published 2025).

System: CAR T cells
Test: Proliferation of CAR T cells co-cultured with antigen-relevant target cells, treated with exogenous VIP and/or VIPR antagonist
Assay type: cell-based
Experimental: Experiments were performed to determine whether antigen-stimulation increases VPAC1+ CAR T cells and VIPR antagonism enhances CAR T cell proliferation in the presence of VIP. CAR T cells were co-cultured alone or with antigen-relevant or antigen-irrelevant […] for 24 hrs. VPAC1 and VPAC2 expression was evaluated via flow cytometry. […] CAR T cells co-cultured with antigen-relevant target cells were treated with exogenous VIP and/or VIPR antagonist. Proliferation of CAR T cells is suppressed by VIP and rescued by exogenous VIPR antagonist (FIGS. 2A-2C).

vasoactive intestinal peptide [VIP]
Proliferation of CAR T cells: suppressed
